Data taken from ChEMBL document CHEMBL5506027, “Discovery of a Novel and Potent Cyclin-Dependent Kinase 8/19 (CDK8/19) Inhibitor for the Treatment of Cancer” (J Med Chem, 2024).

Key:
CDK8/Cyclin C = CDK8/Cyclin C (Homo sapiens, UniProt P49336); test: Displacement of tracer 236 from CDK8/cyclin C (unknown origin) preincubated for 15 mins followed by tracer addition and measured after 60 mins by FRET based lanthascreen assay; assay type: protein-complex assay
MV4-11 = test: Antiproliferative activity against human MV4-11 cells incubated for 5 days by CellTiter-Glo luminescent cell viability assay; assay type: functional, cell-based; settings: MV4-11, 120 h

CDK8/Cyclin C, sequence (P49336 whole entry): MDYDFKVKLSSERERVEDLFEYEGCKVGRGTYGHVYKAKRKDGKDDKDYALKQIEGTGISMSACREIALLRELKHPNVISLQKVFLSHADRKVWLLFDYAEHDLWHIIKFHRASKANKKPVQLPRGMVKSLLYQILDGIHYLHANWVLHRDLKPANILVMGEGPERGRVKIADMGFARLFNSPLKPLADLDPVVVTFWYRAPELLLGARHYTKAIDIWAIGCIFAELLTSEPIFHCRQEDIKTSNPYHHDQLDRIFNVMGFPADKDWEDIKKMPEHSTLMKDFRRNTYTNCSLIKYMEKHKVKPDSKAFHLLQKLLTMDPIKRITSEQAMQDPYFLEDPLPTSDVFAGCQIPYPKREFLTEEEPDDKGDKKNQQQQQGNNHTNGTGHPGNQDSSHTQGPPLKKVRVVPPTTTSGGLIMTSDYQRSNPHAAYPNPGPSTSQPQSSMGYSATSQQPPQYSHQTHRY
CDK8/Cyclin C, sequence (P24863 whole entry, further chain): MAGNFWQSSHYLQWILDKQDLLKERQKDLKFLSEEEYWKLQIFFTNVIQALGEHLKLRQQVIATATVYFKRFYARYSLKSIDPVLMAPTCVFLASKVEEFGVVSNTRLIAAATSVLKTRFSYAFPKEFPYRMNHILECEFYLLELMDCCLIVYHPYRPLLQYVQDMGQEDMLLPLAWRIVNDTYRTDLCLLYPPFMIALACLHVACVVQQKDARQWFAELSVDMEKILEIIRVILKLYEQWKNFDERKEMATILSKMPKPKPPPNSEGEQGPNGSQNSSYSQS

Row | IC50 (CDK8/Cyclin C) [nM] | IC50 (MV4-11) [nM] | Structure (SMILES)
1 | 16.7 | 478 | Cc1c(Br)c(Br)cc2c1nc(N1CCNCC1)n2C1CCCOC1 (stereo not given)
2 | 10.8 | 72.5 | C#Cc1c(Br)c(Br)cc2c1nc(N1CCNCC1)n2C1CCOCC1
3 | 6.4 | 152 | CN1CCN(c2nc3c(C(F)F)c(Br)c(Br)cc3n2C2CCOCC2)CC1
4 | 33.6 | 360 | C=Cc1c(Br)c(Br)cc2c1nc(N1CCNCC1)n2C1CCOCC1
5 | 48.6 | > 1000 | Brc1cc2c(nc(N3CCNCC3)n2C2CCOCC2)c(C2CC2)c1Br
6 | 6.5 | 32.7 | OCCN1CCN(c2nc3c(C(F)F)c(Br)c(Br)cc3n2C2CCOCC2)CC1
7 | 20 | 33.8 | N[C@@H]1CCN(c2nc3c(C(F)F)c(Br)c(Br)cc3n2C2CCOCC2)C1
8 | 139 | > 1000 | Cc1c(Br)c(Br)c(C)c2c1nc(N1CCNCC1)n2C1CCCC1
9 | 35 | 188 | NC1CCN(c2nc3c(C(F)F)c(Br)c(Br)cc3n2C2CCOCC2)CC1
10 | 36.3 | 421 | Cc1c(Br)c(Br)cc2c1nc(N1CCNCC1)n2C1CCCC1
11 | 11.2 | 146 | Cc1c(Br)c(Br)cc2c1nc(N1CCNCC1)n2[C@H]1CC[C@H](O)CC1
12 | 7.9 | 39.4 | Cc1c(Br)c(Br)cc2c1nc(N1CCNCC1)n2C1CCOCC1
13 | 91 | > 1000 | Clc1c(Br)c(Br)cc2c1nc(N1CCNCC1)n2C1CCOCC1
14 | 166 | 526 | Brc1cc2nc(N3CCNCC3)n(C3CCOCC3)c2cc1Br
15 | > 1000 | 795 | Cc1c(Br)c(Br)cc2c1nc(N1CCNCC1)n2C1CC2(COC2)C1
